In brackets after ≈: the same amount, converted by molar mass. Structures can show the parent of a compound that is named as a salt. Where two headings read alike, the source gives them in different places.
What was measured:
[1] = tested on: Plasmodium falciparum strain NF54; assay: Growth inhibition of Plasmodium falciparum NF54 (chloroquine-sensitive) in vitro, [G-3H]-hypoxanthin incorporation; type: cell-based; conditions: chloroquine-sensitive strain NF54, 72 h, read-out: IC50 for P. falciparum NF54
Text: (§1) The ratio of the growth inhibition of a strain which is especially resistant to chloroquine and of a strain which is sensitive to chloroquine gives as the "resistance index" a measurement for the absence of a cross-resistance with chloroquine. Since, for all novel compounds the resistance index lies between 0.7 and 2.5, they inhibit the growth of sensitive as well as resistant strains of the malaria pathogen equally effectively. They are accordingly also suitable for the prophylaxis of a malaria disease and also for the treatment of a malaria disease even when chloroquine is ineffective. The good activity against malaria pathogens is also shown in animal experiments. The effective doses measured after oral and subcutaneous administration to mice infected with malaria pathogens are shown in Table 2 hereinafter.
(§2) Test method for the determination of the activity against Plasmodium falciparum in vitro
(§3) The preparations are tested on intraerythrocytary stages of Plasmodium falciparum from asynchronous cultures according to the method of Desjardin et al. (Desjardins, R. E. et al: Quantitative assessment of antimalarial activity in vitro by a semiautomated microdilution technique. Antimicrob. Agents Chemother. 16, 710-718, (1979)).
(§4) The culture medium consists of RPMI 1640 with the addition of 25 mM HEPES, 25 mM NaHCO3, 100 μg/ml neomycin and […] (A^+). Human-A^+ erythrocytes are used as the Plasmodium falciparum host cells. The parasites are maintained at 37° C. in an atmosphere of 3% O2, 4% CO2, 93% N2 and 95% relative humidity.
(§5) In order to determine the activity, the preparations are dissolved in DMSO, pre-diluted in the culture medium to a suitable starting concentration and subsequently titrated-out on to microtitre plates in the 2nd stage over 6-7 steps. After the addition of the parasite culture (0.7% parasitemia in 2.5% erythrocyte suspension) the test plates are incubated under the conditions given above for 72 h. The parasite growth in the different preparation concentrations is determined using [G-^3 H]-hypoxanthin incorporation compared to untreated control cultures on the same test plates. The 50% growth inhibition (IC50) is calculated according to logit regression analysis from the resulting dosage-activity curve.
(§6) The preparations are tested on at least one chloroquine-resistant and one chloroquine-sensitive Plasmodium falciparum strain. Additional sensitive and resistant strains are included for further characterization.

Plasmodium falciparum K1 = assay: Growth inhibition of Plasmodium falciparum K1 (chloroquine-resistant) in vitro, [G-3H]-hypoxanthin incorporation; type: cell-based, Plasmodium falciparum (strain K1); conditions: for IC50: Plasmodium falciparum, K1, 72 h, read-out: IC50 for P. falciparum K1; for Resistance index: ratio of the IC50 for K1 and the IC50 for NF54
Text: as §1, §2, §3, §4, §5, §6

Plasmodium berghei = assay: animal or person; type: in vivo, Plasmodium berghei (strain ANKA) in mice; conditions: Plasmodium berghei, mice, blood smears 48 h after treatment
Protocol: Test method for the determination of the activity against Plasmodium berghei in vivo
The preparations are tested on mice infected with malaria pathogens (Plasmodium berghei). Male albino mice (IBM:MORO(SPF), FUELLINSDORF) weighing about 25 g are used as the test animals. They are kept in climatized rooms at 21-22° C. in groups of 5 animals per cage. They receive ad libitum a diet feed with a low PABA content (NAFAG FUTTER " No. 9009 PAB-45, PABA content 45 mg/kg) and drinking water. On the first day of the test (D0) the test animals are infected with Plasmodium berghei (strain ANKA). For this there is used heparinized blood of a donor mouse with about 30% parasitemia, which is diluted with physiological saline such that it contains 10^8 parasitized erythrocytes per ml. 0.2 ml of this suspension is injected intravenously (i.v.) into the mice to be treated and into the control mice.
The substances to be tested are dissolved or suspended in distilled water or in a mixture of 7% Tween 80, 3% alcohol (96%) and water. Usually, 0.25 ml of this solution or suspension is administered once subcutaneously and perorally to groups of 5 test animals. Treatment is effected 24 hours after the infection. 10 control animals are treated in the same manner with solvent or suspension medium per test.
All substances are tested in a first test in a single dosage of 10 mg/kg. Only those substances which in this test (10 mg/kg) have shown a parasitaemia reduction of 90% are used for the titration. Suitable dilutions of the test substance can be used to obtain an accurate titration of the activity.
48 hours after the treatment (D+3) blood smears are prepared from all animals using blood from tail veins and are stained with giemsa. […] The difference in the average values of the infection rates of control group (100%) and treated groups is calculated and expressed as a percentage reduction (GI%). The ED50 or ED90 is determined mathematically by means of the JMP programme (nonlinear fit). The ED50 (ED90) in mg/kg is that dose which after single administration reduces the average erythrocyte infection rate by 50% (90%) in comparison to the control group.

SMILES: CCN(CC)Cc1cc(Nc2ccnc3cc(Cl)ccc23)ccc1O [Amodiaquine, reference compound]
- IC50 [1]: 0.0025 µg/mL (≈ 7.03 nM)
- IC50 (Plasmodium falciparum K1): 0.0035 µg/mL (≈ 9.84 nM)

SMILES: C[C@H](CNc1ccnc2cc(Cl)ccc12)NCc1ccc(N(C)C)cc1.Cl.Cl.Cl [Example 1, (2R)-N1-(7-Chloro-quinolin-4-yl)-N2-(4-dimethylamino-benzyl)-propane-1,2-diamine trihydrochloride]
- IC50 [1]: 0.0126 µg/mL
- IC50 (Plasmodium falciparum K1): 0.0175 µg/mL
- Resistance index (Plasmodium falciparum K1): 1.4

SMILES: C[C@@H](CNCc1ccc(N(C)C)cc1)Nc1ccnc2cc(Cl)ccc12.Cl.Cl.Cl [Example 2, (2S)-N2-(7-Chloro-quinolin-4-yl)-N1-(4-dimethylamino-benzyl)-propane-1,2-diamine trihydrochloride]
- IC50 [1]: 0.0071 µg/mL
- IC50 (Plasmodium falciparum K1): 0.0148 µg/mL
- Resistance index (Plasmodium falciparum K1): 2.1

SMILES: CC(C)(CNc1ccnc2cc(Cl)ccc12)NCc1cccc(Cl)c1Cl.Cl.Cl [Example 26, N1-(7-Chloro-quinolin-4-yl)-N2-(2,3-dichloro-benzyl)-2-methyl-propane-1,2-diamine dihydrochloride]
- IC50 [1]: 0.0263 µg/mL
- IC50 (Plasmodium falciparum K1): 0.0373 µg/mL
- Resistance index (Plasmodium falciparum K1): 1.4

SMILES: CC(C)(CNc1ccnc2cc(Cl)ccc12)NCc1cccc(O)c1.Cl.Cl [Example 32, N1-(7-Chloro-quinolin-4-yl)-N2-(3-hydroxy-benzyl)-2-methyl-propane-1,2-diamine dihydrochloride]
- IC50 [1]: 0.0076 µg/mL
- IC50 (Plasmodium falciparum K1): 0.0147 µg/mL
- Resistance index (Plasmodium falciparum K1): 1.9

SMILES: COc1ccccc1CNC(C)(C)CNc1ccnc2cc(Cl)ccc12.Cl.Cl [Example 34, N1-(7-Chloro-quinolin-4-yl)-N2-(2-methoxy-benzyl)-2-methyl-propane-1,2-diamine dihydrochloride]
- IC50 [1]: 0.0072 µg/mL
- IC50 (Plasmodium falciparum K1): 0.015 µg/mL
- Resistance index (Plasmodium falciparum K1): 2.1

SMILES: COc1ccc(CNC(C)(C)CNc2ccnc3cc(Cl)ccc23)cc1.Cl.Cl [Example 35, N1-(7-Chloro-quinolin-4-yl)-N2-(4-methoxy-benzyl)-2-methyl-propane-1,2-diamine dihydrochloride]
- IC50 [1]: 0.0064 µg/mL
- IC50 (Plasmodium falciparum K1): 0.0133 µg/mL
- Resistance index (Plasmodium falciparum K1): 2.1

SMILES: COc1cccc(CNC(C)(C)CNc2ccnc3cc(Cl)ccc23)c1OC.Cl.Cl [Example 36, N1-(7-Chloro-quinolin-4-yl)-N2-(2,3-dimethoxy-benzyl)-2-methyl-propane-1,2-diamine dihydrochloride]
- IC50 [1]: 0.0162 µg/mL
- IC50 (Plasmodium falciparum K1): 0.0207 µg/mL
- Resistance index (Plasmodium falciparum K1): 1.3

SMILES: COc1ccc(CNC(C)(C)CNc2ccnc3cc(Cl)ccc23)c(OC)c1.Cl.Cl [Example 37, N1-(7-Chloro-quinolin-4-yl)-N2-(2,4-dimethoxy-benzyl)-2-methyl-propane-1,2-diamine dihydrochloride]
- IC50 [1]: 0.011 µg/mL
- IC50 (Plasmodium falciparum K1): 0.011 µg/mL
- Resistance index (Plasmodium falciparum K1): 1.0

SMILES: COc1ccc(OC)c(CNC(C)(C)CNc2ccnc3cc(Cl)ccc23)c1.Cl.Cl [Example 38, N1-(7-Chloro-quinolin-4-yl)-N2-(2,5-dimethoxy-benzyl)-2-methyl-propane-1,2-diamine dihydrochloride]
- IC50 [1]: 0.0101 µg/mL
- IC50 (Plasmodium falciparum K1): 0.0151 µg/mL
- Resistance index (Plasmodium falciparum K1): 1.5

SMILES: COc1ccc(CNC(C)(C)CNc2ccnc3cc(Cl)ccc23)cc1OC.Cl.Cl [Example 39, N1-(7-Chloro-quinolin-4-yl)-N2-(3,4-dimethoxy-benzyl)-2-methyl-propane-1,2-diamine dihydrochloride]
- IC50 [1]: 0.0078 µg/mL
- IC50 (Plasmodium falciparum K1): 0.0103 µg/mL
- Resistance index (Plasmodium falciparum K1): 1.3

SMILES: COc1cc(CNC(C)(C)CNc2ccnc3cc(Cl)ccc23)cc(OC)c1OC.Cl.Cl [Example 41, N1-(7-Chloro-quinolin-4-yl)-N2-(3,4,5-trimethoxy-benzyl)-2-methyl-propane-1,2-diamine dihydrochloride]
- IC50 [1]: 0.0135 µg/mL
- IC50 (Plasmodium falciparum K1): 0.0187 µg/mL
- Resistance index (Plasmodium falciparum K1): 1.4

SMILES: Oc1ccccc1CN[C@H]1CC[C@@H](Nc2ccnc3cc(Cl)ccc23)CC1 [Example 78, cis-N1-(7-Chloro-quinolin-4-yl)-N4-(2-hydroxy-benzyl)-cyclohexane-1,4-diamine dihydrochloride]
- inhibition in vivo at 10 mg/kg (Plasmodium berghei; po, single peroral dose of 10 mg/kg, read-out: Growth inhibition in % after po administration (GI%, percentage reduction of the parasitemia)): 99.9%
- inhibition in vivo at 10 mg/kg (Plasmodium berghei; sc, single subcutaneous dose of 10 mg/kg, read-out: Growth inhibition in % after sc administration (GI%, percentage reduction of the parasitemia)): 100%
